The source of these data is patent US20260232713A1, “PLECOMACROLIDE DERIVATIVES FOR MHC-I NEF DOWNMODULATION” (priority 2022, published 2026).

What is called IC50 is the concentration at which inhibition is half-maximal.

For one data set, the target named is T1, V-ATPase (Homo sapiens, UniProt P27449).
T1 construct: endogenous in cells; host or cells: primary CD4+ T cells (HIV ΔGPE infected) from donor PBMCs
Kind of data set: Lysosomal acidification (Lysotracker mean fluorescence intensity) as indicator of V-ATPase activity in primary CD4+ T cells. The data set is classed as cell-based. On the procedure:
(§1) Inhibition of HIV-Nef was measured by assessing its capacity to downmodulate MHC-I HLA-A2 on the surface of primary CD4+ T cells 24-hours after treatment with each compound. V-ATPase inhibition was assessed at the same time point using lysosomal acidification as an indicator of V-ATPase activity. This was measured using a flow cytometric assay that quantified Lysotracker mean fluorescence intensity as previously described (Painter et al., 2020). Cell viability was measured at 24-hour and 72-hour time points using a previously described flow cytometric assay (Painter et al., 2020).
(§2) Anonymized leukocytes isolated by apheresis were obtained from New York Blood Center and peripheral blood mononuclear cells (PBMCs) were isolated by Ficoll-Paque Plus (17144002; GE Healthcare) centrifugation using SepMate tubes (85450; StemCell Technologies) according to the manufacturers protocol. […] Then, 20-24 hours post-PHA activation, 15 mL of R10/PHA medium is removed and replaced with 5 mL of R10+100u/mL Recombinant Human IL-2 (202|L010; R&D Systems). 48 hours after IL-2 stimulation, primary CD4^+ T cells were infected via spinoculation with previously described HIV ΔGPE construct.
(§3) 48 hours after spinoculation, cells were pooled and plated in flat bottom 96-well plate. […] Compounds were thawed at room temperature and diluted in R10 medium to 2× starting concentration.
(§4) All ΔGPE infected cells were collected 24 hours after treatment.
(§5) All statistical analyses were performed using GraphPad Prism software. Curves were generated using GraphPad Prism software using [Inhibitor] vs. response with variable slope (four parameters).

The target of the next data set is T2, HIV-Nef (Human immunodeficiency virus type 1, UniProt P03406).
T2 sequence (P03406 2-206): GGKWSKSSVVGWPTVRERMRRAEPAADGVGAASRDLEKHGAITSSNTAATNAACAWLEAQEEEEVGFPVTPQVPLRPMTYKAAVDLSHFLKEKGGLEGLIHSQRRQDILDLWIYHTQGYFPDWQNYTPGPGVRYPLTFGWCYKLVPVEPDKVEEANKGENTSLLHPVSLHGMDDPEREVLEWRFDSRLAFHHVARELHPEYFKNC
Kind of data set: Inhibition of HIV-Nef downmodulation of MHC-I HLA-A2 on the surface of HIV ΔGPE infected primary CD4+ T cells (flow cytometry). The data set is classed as cell-based. Particulars: HLA-A2 surface expression, ΔGPE infected primary CD4+ T cells, 24 hours after treatment.

Another data set is described as follows: in vitro. Particulars: human. On the procedure: as §1, §2, §3, §4
(§6) All Mock cells were collected 72 hours after treatment.
as §5

The subject of a further data set is primary CD4+ T cells. Kind of data set: in vitro. Particulars: for Viability:Nef (therapeutic window separating Nef IC50 and TC50): ratio TC50 to Nef IC50. On the procedure: as §1, §2, §3, §4, §6, §5

“Also recorded” adds a separate entry of the source. Read-outs that look alike come from different tables or passages of the source. Some results are limits rather than exact numbers.

T1 sequence (P27449 whole entry, looked up): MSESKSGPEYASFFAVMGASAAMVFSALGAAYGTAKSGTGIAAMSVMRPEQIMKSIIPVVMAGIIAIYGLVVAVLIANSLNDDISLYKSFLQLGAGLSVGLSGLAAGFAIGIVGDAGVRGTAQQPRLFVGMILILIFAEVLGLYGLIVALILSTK

Regarding `CNC(=O)O[C@@H](CC(C)C)c1nc([C@H]2OC(=O)/C(C)=C/C/C(C)=C/[C@@H](O)[C@@H](C)\C=C(C)/C=C(C)\C=C\[C@@H](O)[C@H](C)[C@H](OC)/C(C)=C/C=C/[C@@H]2C)cs1` [Compound 3, Archazolid A, reference compound], the IC50 on V-ATPase (Lysotracker Red, ΔGPE infected primary CD4+ T cells, 24 hours after treatment, read-out: Lysotracker (V-ATPase IC50, lysosomal neutralization)) is 1.6 nM; at HIV-Nef it was 0.47 nM.
`C/C=C/[C@H]1O[C@@](O)([C@@H](C)[C@H](O)[C@H](C)[C@H]2OC(=O)/C(OC)=C/C(C)=C/[C@@H](C)[C@@H](O)[C@@H](CC)[C@@H](OC(C)=O)[C@H](C)C/C(C)=C/C=C/[C@@H]2OC)C[C@@H](O[C@@H]2C[C@H](OC(C)=O)[C@@H](OC(N)=O)[C@H](C)O2)[C@@H]1C` [Compound 15, 3′,9-diacetyl CMA] showed an IC50 against V-ATPase of 7.9 nM. The CC50 in “in vitro” came out at 3.9 nM. The “Viability:Nef (therapeutic window separating Nef IC50 and TC50)” value (“Viability:Nef” below) in the data set on primary CD4+ T cells was determined as 11 fold.
For the compound `C[C@@H]1C[C@H](C)C[C@H](C)[C@@H](O)CC(=O)O[C@H]([C@@H]2CCC[C@H]2C(=O)O)C/C=C/C=C(/C#N)[C@H](O)[C@@H](C)C1` [Compound S2, Borrelidin, reference compound], the half-maximal inhibitory concentration (IC50) on V-ATPase was 165 nM. The CC50 at 72 h in the data set “in vitro” (mock-infected primary CD4+ T cells) came to 91 nM. Also, the “Toxicity at 24 hours” value in the data set on primary CD4+ T cells (24-hour time point) is on record as “toxic at 24-hours”. Moreover, in the data set on primary CD4+ T cells, the “Viability:Nef” value is listed as 2.0 fold.
The compound `CO/C1=C\C(C)=C\[C@@H](C)[C@@H](O)[C@@H](C)C/C(C)=C/C=C/[C@H](OC)[C@@H]([C@@H](C)[C@@H](O)[C@H](C)[C@@]2(OC)C[C@@H](O)[C@H](C)C(C(C)C)O2)OC1=O` (stereo partly shown) [Compound S4, Bafilomycin A2] registered an IC50 on V-ATPase of 24 nM. For the same compound, the CC50 in the data set “in vitro” is 13 nM. Moreover, the “Viability:Nef” value in the data set on primary CD4+ T cells is 1.2 fold.
Compound `CO/C1=C\C(C)=C\[C@@H](C)[C@@H](O)[C@@H](C)C/C(C)=C/C=C/[C@H](OC)[C@@H]([C@@H](C)[C@@H](O)[C@H](C)[C@H]2C[C@@H](OC)[C@H](C)[C@@H](C(C)C)O2)OC1=O` [Compound S6] had an IC50 against V-ATPase of 52 nM. In “in vitro”, the CC50 came to 28 nM. Besides, in the data set with primary CD4+ T cells, the “Viability:Nef” value is recorded as 1.4 fold.
The like results for `CO/C1=C\C(C)=C\[C@@H](C)[C@@H](O)[C@@H](C)C/C(C)=C/C=C/[C@H](OC)[C@@H]([C@@H](C)[C@@H](O)[C@H](C)[C@@]2(O)C[C@@H](OC(C)=O)[C@H](C)C(C(C)C)O2)OC1=O` (stereo partly shown) [Compound S9] were, in that order, 23 nM, 10 nM and 2.4 fold.
At V-ATPase, `CCCCCCCCC(=O)O[C@@H]1C[C@](O)([C@@H](C)[C@H](O)[C@H](C)[C@H]2OC(=O)/C(OC)=C/C(C)=C/[C@@H](C)[C@@H](O)[C@@H](C)C/C(C)=C/C=C/[C@@H]2OC)O[C@H](C(C)C)[C@H]1C` [Compound S11] displayed an IC50 of 150 nM. The CC50 in “in vitro” is 140 nM. The “Viability:Nef” value in the data set with primary CD4+ T cells is on record as 1.1 fold.
On to `C=C/C=C/C(=O)O[C@@H]1C[C@](O)([C@@H](C)[C@H](O)[C@H](C)[C@H]2OC(=O)/C(OC)=C/C(C)=C/[C@@H](C)[C@@H](O)[C@@H](C)C/C(C)=C/C=C/[C@@H]2OC)O[C@H](C(C)C)[C@H]1C` [Compound S12], for which, at V-ATPase, the IC50 is 24 nM. In addition, the CC50 in “in vitro” was 22 nM. In addition, the “Viability:Nef” value with primary CD4+ T cells amounted to 1.4 fold.
Taken in the same sequence, the figures for `COC1=CC(C)=CC(C)C(O)C(C)CC(C)=CC=CC(OC)C(C(C)C(O)C(C)C2(O)CC(OC3OC(C)C(O)C(O)C3OC)C(C)C(C(C)C)O2)OC1=O` (stereo not shown) [Compound S14, Leucanicidin, reference compound] were 2.5 nM, 1.4 nM and 1.3 fold.
`CC=CC=CC1OC(O)(C(C)C(O)C(C)C2OC(=O)C(OC)=CC(C)=CC(C)C(O)C(C)CC(C)=CC=CC2OC)CC(OC2CC(O)C(O)C(C)O2)C1C` (stereo not shown) [Compound S15, PC-766B, reference compound] gave an IC50 against V-ATPase of 2.5 nM. Moreover, the CC50 in “in vitro” was 1.3 nM. The “Viability:Nef” value with primary CD4+ T cells is listed as 1.1 fold.
As for `CO/C1=C\C(C)=C\[C@@H](C)C(=O)[C@@H](C)C/C(C)=C/C=C/[C@H](OC)[C@@H]([C@@H](C)[C@@H](O)[C@H](C)[C@@]2(O)C[C@@H](O)[C@H](C)[C@@H](C(C)C)O2)OC1=O` [Compound S17], the IC50 against V-ATPase was greater than 1000 nM. On V-ATPase (Lysotracker Red, ΔGPE infected primary CD4+ T cells, 24 hours after treatment), the “Lysotracker (V-ATPase IC50, lysosomal neutralization)” value is “above the activity threshold”. In the data set “in vitro”, this compound registered a CC50 at 72 h greater than 1000 nM. The “Nef (Nef IC50)” value on HIV-Nef was “abrogation of activity at all concentrations tested; also recorded: above the activity threshold”.
Turning to `CO/C1=C\C(C)=C\[C@@H](C)[C@@H](OC(C)=O)[C@@H](C)C/C(C)=C/C=C/[C@H](OC)[C@@H]([C@@H](C)[C@@H](O)[C@H](C)[C@@]2(O)C[C@@H](OC(C)=O)[C@H](C)C(C(C)C)O2)OC1=O` (stereo partly shown) [Compound S19], on V-ATPase, the IC50 came to 530 nM. For the same compound, the CC50 in the data set “in vitro” was found to be 440 nM. Further, the “Viability:Nef” value with primary CD4+ T cells came to 1.8 fold.
The like results for `C#CCCC(=O)O[C@@H]1C[C@H]([C@@H](C)[C@H](O)[C@H](C)[C@H]2OC(=O)/C(OC)=C/C(C)=C/[C@@H](C)[C@@H](O)[C@@H](C)C/C(C)=C/C=C/[C@@H]2OC)O[C@H](C(C)C)[C@H]1C` [Compound S28] were, in that order, 61 nM, 36 nM and 1.7 fold.
As to `C/C=C/CC(=O)O[C@@H]1C[C@](O)([C@@H](C)[C@H](O)[C@H](C)[C@H]2OC(=O)/C(OC)=C/C(C)=C/[C@@H](C)[C@@H](O)[C@@H](C)C/C(C)=C/C=C/[C@@H]2OC)OC(C(C)C)[C@H]1C` (stereo partly shown) [Compound S29], the IC50 at V-ATPase is 47 nM. The compound further yielded a CC50 in the data set “in vitro” of 39 nM. Also, in the data set on primary CD4+ T cells, the “Viability:Nef” value is reported as 1.6 fold.
On V-ATPase, `C/C=C/[C@H]1O[C@@](O)([C@@H](C)[C@H](O)[C@H](C)[C@H]2OC(=O)/C(OC)=C/C(C)=C/[C@@H](C)[C@@H](O)[C@@H](CC)[C@@H](O)[C@H](C)C/C(C)=C/C=C/[C@@H]2OC)C[C@@H](O[C@@H]2C[C@H](OC(C)=O)[C@@H](OC(C)=O)[C@H](C)O2)[C@@H]1C` [Compound S48, 3′,4-diacetyl CMC] returned an IC50 of 3.1 nM. The CC50 in “in vitro” stood at 1.3 nM. Besides, in the data set on primary CD4+ T cells, the “Viability:Nef” value is listed as 1.8 fold.
The like results for `C/C=C/[C@H]1O[C@@](O)([C@@H](C)[C@H](O)[C@H](C)[C@H]2OC(=O)/C(OC)=C/C(C)=C/[C@@H](C)[C@@H](O)[C@@H](CC)[C@@H](OC(C)=O)[C@H](C)C/C(C)=C/C=C/[C@@H]2OC)C[C@@H](O[C@@H]2C[C@H](OC(C)=O)[C@@H](OC(C)=O)[C@H](C)O2)[C@@H]1C` [Compound S49, 3′,4′,9-triaceyl CMC] were, in that order, 11 nM, 4.5 nM and 1.8 fold.
For `C/C=C/[C@H]1O[C@@](O)([C@@H](C)[C@H](O)[C@H](C)[C@H]2OC(=O)/C(OC)=C/C(C)=C/[C@@H](C)[C@@H](O)[C@@H](CC)[C@@H](O)[C@H](C)C/C(C)=C/C=C/[C@@H]2OC)C[C@@H](OC(C)=O)[C@@H]1C` [Compound S50, 23-Acetyl CMF], the midpoint of inhibition at V-ATPase, the IC50, lay at 6.1 nM. In addition, the CC50 in “in vitro” was found to be 6.1 nM. Further, the “Viability:Nef” value in the data set on primary CD4+ T cells came out at 5.8 fold.
Compound `CO/C1=C\C(C)=C\[C@@H](C)[C@@H](O)[C@@H](C)C/C(C)=C/C=C/[C@H](OC)[C@@H]([C@@H](C)[C@@H](O)[C@H](C)[C@@]2(O)C[C@@H](OC=O)[C@H](C)[C@@H](C(C)C)O2)OC1=O` [Compound S61] displayed an IC50 at V-ATPase of 12 nM. This compound came in with a CC50 in “in vitro” of 7.3 nM. For the same compound, the “Viability:Nef” value in the data set with primary CD4+ T cells is 2.6 fold.
`C/C=C/[C@H]1O[C@@H]([C@@H](C)[C@H](O)[C@H](C)[C@H]2OC(=O)/C(OC)=C/C(C)=C/[C@@H](C)[C@@H](O)[C@@H](CC)[C@@H](O)[C@H](C)C/C(C)=C/C=C/[C@@H]2OC)C[C@@H](O[C@@H]2C[C@H](O)[C@@H](O)[C@H](C)O2)[C@@H]1C` [Compound S62, 21-Deoxy CMC] yielded an IC50 on V-ATPase of 6 nM. Further, in “in vitro”, the CC50 was found to be 2 nM. For the same compound, the “Viability:Nef” value in the data set with primary CD4+ T cells is 1.8 fold.
